Measurements taken from patent US20260007601A1, “IONIZABLE CATIONIC LIPID COMPOUND AND COMPOSITION FOR DELIVERING NUCLEIC ACID AND USE THEREOF” (BEIJING YOUCAREKECHUANG PHARMACEUTICAL TECHNOLOGY CO., LTD., priority 2023, published 2026).

How the values were obtained:
293T cells [1] = test: Fluorescence detection of Fluc-mRNA (cell transfection efficiency of LNP formulations); type: cell-based; details: for Relative light unit (RLU): LNP containing 0.3 μg Fluc-mRNA, 24 hours; for Multiples of values that equivalent to YK-201: RLU of YK-201 / RLU of the named lipid; for Multiples of values that equivalent to YK-202: RLU of YK-202 / RLU of the named lipid; for Multiples of values that equivalent to YK-209: RLU of YK-209 / RLU of the named lipid; for Ratio relative to SM-102: RLU of the named lipid / RLU of SM-102, times that of SM-102
Experimental: (§1) Cell recovery and passaging: 293T cells were recovered and cultured in culture dishes to the required cell number.
(§2) Plating: The cells in the culture dish were digested, counted, plated in a 96-well plate at 10,000 cells per well, or in a 12-well plate at 150,000 cells per well, and cultured overnight until the cells adhered to the wall.
(§3) Cell recovery and passage: The method was the same as in Example 3.
(§4) Plating: The method was the same as Example 3.
The LNP formulation containing 0.3 μg Fluc-mRNA (prepared according to Example 4, the LNP formulation carrier components were cationic lipids, neutral lipids, structured lipids and polymer-conjugated lipids at a molar ratio of 49:10:39.5:1.5, and the cationic lipids were cationic lipids listed in Table 1) was added to the cell culture medium of a 96-well plate, and cultured for 24 hours. After that, the corresponding reagents were added according to the instructions of the Gaussia Luciferase Assay Kit, and the fluorescence expression intensity of each well was detected by the IVIS fluorescence detection system. This experiment verified the transfection efficiency of the LNP formulation in the cell, and the specific detection results are shown in Tables 6-9.

[2] = Encapsulation rate, drug loading concentration and total RNA concentration detection (RiboGreen); type: physicochemical; details: LNP formulation of the named lipid
Description: Encapsulation rate is a key quality attribute of liposomes. It refers to the percentage of drug content encapsulated in the lipid bilayer to the total amount of drug added, which can reflect the degree of drug encapsulation in liposomes. The Chinese Pharmacopoeia stipulates that the encapsulation rate should usually not be less than 80%.
The drug loading capacity is the ratio of the amount of drug in the liposome to the total amount of drug and carrier in the liposome. The drug loading capacity directly affects the clinical application dose of the drug, so the larger the drug loading capacity, the more it can meet clinical needs. The drug loading concentration is proportional to the drug loading capacity, and the relative proportion of the drug loading concentration can represent the relative proportion of the drug loading capacity. The relative proportion of the total RNA concentration can represent the relative proportion of the amount of mRNA carried by the LNP formulation.
1×TE buffer, 0.1% Triton X-100 buffer, and RiboGreen reagent (1:200) and mRNA standard stock solution were prepared.
An appropriate amount of sample was taken and added to an appropriate amount of 1×TE buffer, which was diluted to a solution containing about 2.8 μg of the test sample per 1 mL. Then the sample was added to a 96-well plate, where 50 μL of the diluted test sample or mRNA standard stock solution was added to each well, and then added with 1×TE buffer and 0.1% Triton X-100 buffer. The samples were incubated at 37° C. for 10 minutes, and 100 μL of RiboGreen reagent (1:200) was added to each well of the 96-well plate. The plate was centrifuged, and read using an ELISA reader, and the data was processed.

female BALB/C mice = test: Mouse in vivo imaging of Fluc-mRNA LNP formulations; design: average radiation intensity (mRNA expression): unit not given here; details: 10 μg Fluc-mRNA LNP intramuscularly
Experimental: The LNP formulation containing 10 μg Fluc-mRNA (prepared according to Example 4) was injected intramuscularly into female BALB/C mice aged 4 to 6 weeks and weighing 17 to 19 g, and the mice were intraperitoneally injected with fluorescent imaging substrates at specific time points (6 h, 24 h, 48 h and 7 d) after administration. The mice moved freely for 5 minutes, and then the average radiation intensity (corresponding to the fluorescence expression intensity) of the protein expressed by the mRNA carried by the LNP in the mice was detected by IVIS Spectrum small animal in vivo imager. The test results are shown in Tables 14 to 17 and FIGS. 12 to 14.

[3] = Particle size and polydispersity index (PDI) of nanolipid particles, dynamic light scattering; type: physicochemical; details: LNP formulation prepared from the named cationic lipid, 25° C
Experimental: The particle size and polydispersity index (PDI) were determined by dynamic light scattering method using a Malvern laser particle size analyzer. 10 μL of liposome solution was diluted to 1 mL with RNase-free deionized water and added to a sample pool. Each sample was measured three times. The measurement conditions were: 90° scattering angle, 25° C.

293T cells [4] = test: Cell survival rate assay (CCK-8); type: cell-based; details: LNP containing 1.5 μg Fluc-mRNA, 24 hours, CCK-8
Experimental: as §1, §2, §3, §4
The LNP formulations containing 1.5 μg Fluc-mRNA (prepared according to Example 4, the LNP formulation carrier components are cationic lipids, neutral lipids, structured lipids and polymer-conjugated lipids at a molar ratio of 49:10:39.5:1.5, wherein the cationic lipids are the cationic lipids listed in Table 1) and the Lipofectamine 3000 formulation were added to the cell culture medium of the 96-well plate, and the culture was continued for 24 hours. Then, 10 μL of CCK-8 solution was added to each well, and the culture plate was incubated in the incubator for 1 hour, and the absorbance at 450 nm was measured by a microplate reader.

Drug loading concentration [2] [µg/mL] | Encapsulation rate [2] [%] | Total RNA concentration [2] [µg/mL] | PDI [3] [%] | Particle size [3] [nm] | Compound | Relative light unit (RLU) (293T cells [1]) | Multiples of values that equivalent to YK-201 (293T cells [1]) | Multiples of values that equivalent to YK-202 (293T cells [1]) | Multiples of values that equivalent to YK-209 (293T cells [1]) | Ratio relative to SM-102 (293T cells [1]) | average radiation intensity (mRNA expression) (female BALB/C mice; 6 h) | average radiation intensity (mRNA expression) (female BALB/C mice; 24 h) | average radiation intensity (mRNA expression) (female BALB/C mice; 48 h) | average radiation intensity (mRNA expression) (female BALB/C mice; 7 d) | Cell survival rate (293T cells [4]) [%]
42.19 | 90.4 | 46.66 | 17.9 | 210 | CCCCCCCCCCOC(=O)CCCN(CCCCCC(=O)OCCC(CCCCCC)CCCCCC)CCOC(=O)SCCCN(C)C [YK-217, 3-hexylnonyl-11-(4-(decyloxy)-4-oxobutyl)-2-methyl-7-oxo-8-oxo-6-thio-2,11-diazaheptane-17-carboxylate] | 71850 | 396.42 | 416.94 | 293.09 | 0.04 | 24585 | 2650 | 1024 | 523 | 42.27
36.50 | 78.2 | 46.66 | 17.2 | 222 | CCCCCCCCCCOC(=O)CCCN(CCCCCC(=O)OCC(CCCCCCCC)CCCCCCCC)CCOC(=O)SCCCN(C)C [YK-218, 2-octyldecyl-11-(4-(decyloxy)-4-oxobutyl)-2-methyl-7-oxo-8-oxo-6-thio-2,11-diazaheptane-17-carboxylate] | 607080 | 46.92 | 49.35 | 34.69 | 0.36 | – | – | – | – | 72.84
31.46 | 95.4 | 32.98 | 21.9 | 237 | CCCCCCCCCCOC(=O)CCCN(CCCCCC(=O)OCC(CCCCCCCC)CCCCCCCC)CCN(C)CCNC [YK-221] | 27960 | 1018.69 | 1071.44 | 753.17 | 0.02 | – | – | – | – | 20.95
34.70 | 82.0 | 42.34 | 17.6 | 207 | CCCCCCCCC(CCCCCCCC)OC(=O)CCCCCN(CCCCCC(=O)OC(CCCCCCCC)CCCCCCCC)CCN(CCO)CCO [YK-213, bis(heptadecan-9-yl)-6,6-((2-(bis(2-hydroxyethyl)amino)ethyl)azadialkyl)dihexanoate] | 1364505 | 20.87 | 21.95 | 15.43 | 0.82 | – | – | – | – | 41.44

Further lines, the compound ahead of its results:

Compound | Drug loading concentration [2] [µg/mL] | Encapsulation rate [2] [%] | Total RNA concentration [2] [µg/mL] | PDI [3] [%] | Particle size [3] [nm] | Relative light unit (RLU) (293T cells [1]) | Multiples of values that equivalent to YK-201 (293T cells [1]) | Multiples of values that equivalent to YK-202 (293T cells [1]) | Multiples of values that equivalent to YK-209 (293T cells [1]) | Ratio relative to SM-102 (293T cells [1]) | average radiation intensity (mRNA expression) (female BALB/C mice; 6 h) | average radiation intensity (mRNA expression) (female BALB/C mice; 24 h) | average radiation intensity (mRNA expression) (female BALB/C mice; 48 h) | average radiation intensity (mRNA expression) (female BALB/C mice; 7 d) | Cell survival rate (293T cells [4]) [%]
CCCCCCCCCCOC(=O)CCCN(CCO)CCCCCC(=O)OCC(CCCCCCCC)CCCCCCCC [YK-009, reference compound] | 26.86 | 63.0 | 38.62 | 13.0 | 202 | 5125986 | 5.56 | 5.84 | 5.24 | 3.08 | 1012400 | 767850 | 128570 | 10741 | 72.88
CCCCCCCCCCOC(=O)CCCN(CCCCCC(=O)OCC(CCCCCCCC)CCCCCCCC)C(=O)SCCCN(C)C [YK-219] | 30.31 | 64.2 | 47.23 | 22.4 | 217 | 1505963 | 18.91 | 19.89 | 13.98 | 0.90 | – | – | – | – | 58.61
CCCCCCCCCCCOC(=O)CCCCCN(CCCCCCCC(=O)OCCC(CCCCCC)CCCCCC)CCN(C)CCO [YK-203] | 38.38 | 91.0 | 42.19 | 23.7 | 235 | 3869614 | 7.36 | 7.74 | 5.44 | 2.32 | – | – | – | – | 35.56
CCCCCCC(CCCCCC)CCOC(=O)CCCCCN(CCCCCC(=O)OCCC(CCCCCC)CCCCCC)CCN(C)CCNC [YK-225] | 38.74 | 98.0 | 39.53 | 19.3 | 222 | 26145 | 1089.41 | 1145.82 | 805.46 | 0.02 | – | – | – | – | 43.41
CCCCCCCCCCCOC(=O)CCCCCN(CCCCCCCC(=O)OC(CCCCCCC)CCCCCCC)CCN(CC)CCO [YK-205] | 30.02 | 68.4 | 43.92 | 17.7 | 219 | 1029168 | 27.68 | 29.11 | 20.46 | 0.62 | – | – | – | – | 58.92
